Earlier results as cited in US10772837B2, “Modified release multi-layer tablet cannabinoid formulations” (CannTab Therapeutics, Limited, priority 2017, dated 2020).
Read-outs that look alike come from different tables or passages of the source.

Legend:
[1] = pure CBD, twice-daily dosages, paediatric patients; ranging from total seizure freedom to these reductions
[2] = for solubility: in water

| Compound | seizure reduction [1] | BCS class ([2]; NICHD/FDA Oral Formulations Platform Report 1) | solubility [2] | solubility ([2]; listed as dronabinol) |
| --- | --- | --- | --- | --- |
| C=C(C)[C@@H]1CCC(C)=C[C@H]1c1c(O)cc(CCCCC)cc1O [CBD, cannabidiol] | 25-80% | – | – | – |
| CCCCCc1cc(O)c2c(c1)OC(C)(C)[C@@H]1CCC(C)=C[C@@H]21 [Dronabinol, (−)-trans-Δ9-tetrahydrocannabinol] | – | class 2 or class 4 | insoluble in water | low |
